# Where “and” joins values, the source holds several entries; their conditions need not be identical. Equal entries are not always repeated.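 How tested: cells in 96-well plates exposed to compound for 48 hours at five concentrations. Abbreviation: GI50, concentration required for 50% inhibition of growth. TGI marks complete inhibition of growth.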
# Experiments:
# Experiment in all cases: NCI anticancer screen, dose series, 48 h
# SK-MEL-2 melanoma = tested on: SK-MEL-2 melanoma
# HS 578T breast = tested on: HS 578T breast
# OVCAR-4 ovarian = tested on: OVCAR-4 ovarian
# SNB-19 CNS = tested on: SNB-19 CNS
# COLO 205 colon = tested on: COLO 205 colon
# A498 renal = tested on: A498 renal
# NCI/ADR-RES ovarian = tested on: NCI/ADR-RES ovarian
# TK-10 renal = tested on: TK-10 renal
# HT29 colon = tested on: HT29 colon
# K-562 leukemia = tested on: K-562 leukemia
SMILES,TGI (SK-MEL-2 melanoma),TGI (HS 578T breast),TGI (OVCAR-4 ovarian),TGI (SNB-19 CNS),TGI (COLO 205 colon),TGI (A498 renal),TGI (NCI/ADR-RES ovarian),TGI (TK-10 renal),GI50 (HT29 colon) [µM],TGI (HT29 colon),GI50 (SK-MEL-2 melanoma) [µM],GI50 (HS 578T breast) [µM],GI50 (OVCAR-4 ovarian) [µM],GI50 (SNB-19 CNS) [µM],GI50 (COLO 205 colon) [µM],GI50 (A498 renal) [µM],GI50 (K-562 leukemia) [µM],TGI (K-562 leukemia),GI50 (NCI/ADR-RES ovarian) [µM],GI50 (TK-10 renal)
CC1=CC[C@@H]2[C@@H](CC[C@@]2(C)O)C(C)(C)[C@H]1CC[C@@H]1[C@@]2(C)CCC(=O)C(C)(C)O[C@@H]2CC[C@]1(C)O,> 100 µM,77 µM,> 100 µM,> 100 µM,55.8 µM,73 µM,60.9 µM,> 100 µM,,,,,,,,,,,,
COC1=CC(c2ccc[nH]2)=N/C1=C\c1[nH]c(C)c(C(=O)CCC(=O)Oc2ccc3c(c2)CCC2C3CC[C@]3(C)C(=O)CC[C@@H]23)c1C (stereo not given in full),58.7 µM,> 100 µM,> 100 µM,> 100 µM,> 100 µM,57.4 µM,> 100 µM,> 92 µM,0.839,> 100 µM,15.6,14.2,13.1,17.7,21.5,7.94,4.22,> 100 µM,12.6,25.2 µM
Cc1cc(N(CCCl)CCCl)ccc1C=Nc1cccnc1,> 50.1 µM,> 100 µM,> 100 µM,> 100 µM,> 70.8 µM,0.833 µM,> 95.4 µM,> 66 µM,> 79,> 100 µM,7.57,37.7,22.4,59.9,15.1,0.237,34.7,> 100 µM,12.1,10.4 µM
COC1/C=C/O[C@@]2(C)Oc3c(C)c(O)c4c(O)c(cc(O)c4c3C2=O)NC(=O)/C(C)=C\C=C\[C@H](C)C(O)[C@@H](C)[C@@H](O)[C@@H](C)[C@H](OC(C)=O)[C@@H]1C (stereo not given in full),30 µM and 45.2 µM,64.6 µM and 114 µM,30.6 µM and 28.3 µM,220 µM,15.5 µM and 10.6 µM,96.9 µM,59.7 µM and 86 µM,32.1 µM and 39.1 µM,11.6,24.3 µM and 34.5 µM,,24.2,16,51.8,4.25,,4.47,21.8 µM and 82.6 µM,24,
COc1ccc2c(c1)C(=O)c1c-2c(NCCCN(C)C)nc2ccccc12,34.3 µM,16 µM,16.4 µM,21.2 µM,18.8 µM,23.8 µM,19.4 µM,18.3 µM,1.02,2.82 µM,18.4,3.7,0.898,7.44,5.23,11.3,3.69,14.7 µM,4.03,4.33 µM
Cc1ccc(NS(=O)(=O)c2ccc(-c3cnc(C4CC4)o3)cc2)cc1,18.8 µM,13.5 µM,17.6 µM,16.6 µM,16.1 µM,6.83 µM,7.79 µM,22.1 µM,2.34,11 µM,5.06,2.71,3.87,3.88,3.64,2.05,0.519,16.3 µM,1.61,9.96 µM
COCCNCC(O)Cn1c2ccc(Cl)cc2c2cc(Cl)ccc21 (stereo not given),4.18 µM,5.51 µM,5.2 µM,16.6 µM,3.83 µM,5.32 µM,5.59 µM,3.37 µM,2.23,4.24 µM,2.16,1.99,2.01,3.48,2.08,1.73,2.19,4.64 µM,2.39,1.79 µM
CS(=O)(=O)c1nccc(-c2c(-c3cccc(OCc4ccc(F)cc4)c3)nc3sccn23)n1,> 100 µM,> 100 µM,> 100 µM,> 96.7 µM,> 100 µM,65.2 µM,> 100 µM,> 100 µM,53.9,> 100 µM,> 100,14.3,11.4,26,45,18.2,6.67,> 100 µM,43.2,> 94.2 µM
Cc1c(Cl)cccc1NC(=O)CC1Sc2ccccc2NC1=O (stereo not given),59.6 µM and 41.9 µM,25.3 µM,40 µM and 40.4 µM,52.8 µM and 42.5 µM,> 100 µM,38.2 µM and 37.5 µM,58.9 µM,49.6 µM and > 100 µM,,63.3 µM,,,,,,,,99.7 µM and > 100 µM,,20.8 µM and 48.2 µM
COc1ccc(-c2nc(-c3nc4ccc(F)cc4[nH]3)cc3c2[nH]c2ccccc23)cc1,4.45 µM,> 100 µM,> 100 µM,> 100 µM,4.71 µM,9.7 µM,> 100 µM,6.74 µM,2.96,9.01 µM,2.11,2.82,5.1,2.94,2.1,1.92,2.79,> 100 µM,2.77,2.2 µM
CCN(CC)c1ccc(NC(C(=O)c2ccccc2)c2ccccc2)cc1 (stereo not given),16.8 µM,47.1 µM,46.2 µM,19.1 µM,11.9 µM,10.1 µM,6.21 µM,7.53 µM,3.19,> 100 µM,3.44,3.41,4.78,3.45,3.41,2.71,3.27,55.1 µM,2.54,2.49 µM
COc1ccccc1-c1cc2c3c(nc4ccccc42)C(=O)c2cccnc2-c3n1,47.8 µM,37.9 µM,38.7 µM,33.8 µM,55.1 µM,47.4 µM,32.6 µM,29.6 µM,15.3,29.9 µM,17.5,17.9,13.5,17.4,20.9,18.9,> 19.6,> 100 µM,7.11,14.8 µM
CCC(=O)Sc1ccccc1C(=O)Nc1ccc(Cl)cc1,> 100 µM,66.4 µM,> 100 µM,68.8 µM,32.1 µM,38.5 µM,38 µM,76.9 µM,7.09,44.5 µM,25.7,15.9,13.1,16.6,13.6,9.19,3.83,> 100 µM,6.45,22.9 µM
CO/N=C(\c1ccccc1)c1cnn(-c2ccccc2)c1N,> 25 µM,> 25 µM,> 25 µM,> 25 µM,> 25 µM,> 25 µM,> 25 µM,> 25 µM,> 25,> 25 µM,> 25,> 25,> 25,> 25,> 25,> 16.8,> 25,> 25 µM,> 25,> 25 µM
O=C1Nc2ccc(Cl)cc2/C1=C\c1c(-c2ccc(F)cc2)nc2ccccn12,6.17 µM,8.37 µM,7.23 µM,27.4 µM,13.6 µM,4.51 µM,7.06 µM,7.39 µM,2.33,5.41 µM,2.66,2.2,2.3,3.33,4.03,1.21,,,2.3,2.95 µM
COc1ccc(-c2cc3cccc(OC)c3c(=O)o2)cc1OC,> 100 µM,> 100 µM,> 100 µM,> 100 µM,> 100 µM,> 100 µM,> 100 µM,> 100 µM,8.49,> 100 µM,> 100,12.7,> 100,41.3,35.8,81.7,26.3,> 100 µM,40.3,> 100 µM
Nc1ccccc1C#C/C=C\C#Cc1ccc(F)cc1F,58.1 µM,30.5 µM,> 100 µM,,82 µM,31.9 µM,21.1 µM,30.4 µM,31.1,> 100 µM,23,13.2,37.1,,29.5,15.8,4.98,> 100 µM,6.22,11.2 µM
C=CC1CC12C(=O)C1OC2(C)C2C(=O)c3ccccc3C(=O)C12 (stereo not given),> 100 µM,98.2 µM,> 100 µM,> 84.7 µM,> 100 µM,> 100 µM,> 70.9 µM,> 100 µM,> 61.6,> 100 µM,> 86,> 57.4,31.5,> 47.7,> 100,> 100,2.3,6.94 µM,> 43.6,> 49.9 µM
CC(C)C1CN1CC(O)Cn1ccnc1[N+](=O)[O-] (stereo not given),> 100 µM,> 100 µM,> 100 µM,> 100 µM,> 100 µM,> 100 µM,> 100 µM,> 100 µM,,> 100 µM,,,,,,,,> 100 µM,,
CC1OCC2OC(C)OC(C3C4=C(CC(C)(C)CC4=O)OC4=C3C(=O)CC(C)(C)C4)C2O1 (stereo not given),> 100 µM,> 100 µM,,> 100 µM,> 100 µM,> 100 µM,> 100 µM,> 100 µM,,> 100 µM,,,,,,,,> 100 µM,,
c1ccc2c(c1)O[As](O[As]1Oc3ccccc3O1)O2,8.61 µM,65.9 µM,19.7 µM,19.6 µM,20.2 µM,5.64 µM,> 100 µM,13.3 µM,2.75,8.74 µM,2.76,3.47,2.49,5.56,5.42,1.6,1.66,7.28 µM,3.58,4.75 µM
CCCOC(=O)N[C@H]1CCc2c(Br)c(OC)c(OC)c(OC)c2-c2ccc(SC)c(=O)cc21,37.1 µM,49.1 µM,> 100 µM,> 100 µM,,0.0509 µM,> 57.4 µM,> 76.6 µM,0.0297,> 48 µM,2.44,0.0321,0.158,0.0425,,< 0.0135,< 0.01,> 100 µM,0.0345,4.67 µM
COC(=O)C(=O)C(C(=O)C(=O)Nc1ccccc1C(=O)OC)c1nc2ccc(C(=O)c3ccccc3)cc2[nH]c1=O (stereo not given),> 100 µM,> 100 µM,88.8 µM,,,> 100 µM,> 100 µM,> 100 µM,,> 100 µM,,,,,,,,> 100 µM,,
COc1ccc(-c2cc3c4c(nc5ccccc5c4c2)CC(c2cc(OC)c(OC)c(OC)c2)O3)cc1 (stereo not given),14.9 µM,6.81 µM,,12.8 µM,,13.4 µM,47.3 µM,5.28 µM,3.07,> 100 µM,3.44,1.24,,3.3,,3.39,3.37,> 100 µM,3.03,2.37 µM
O=C1OCC(c2ccc(O)c(O)c2)=C1c1cc(O)c(O)c(O)c1,,> 100 µM,70.1 µM,> 100 µM,57.7 µM,> 100 µM,18.8 µM,> 100 µM,32.5,98.2 µM,,87.9,26.2,25.3,23.3,> 100,21.2,46.1 µM,0.0297,73.1 µM
O=C(NO)c1ccc(C(=O)NO)cc1,,> 100 µM,> 100 µM,> 100 µM,> 100 µM,> 100 µM,26.2 µM,> 100 µM,,> 100 µM,,,,,,,,> 100 µM,,
